According to patent publication US10023557B2 (LifeSci Pharmaceuticals, Inc., priority 2015, dated 2018):

Tests used:
[1] = target: cellular kallikrein activity (Homo sapiens (Human), UniProt P03952); assay: In vitro cellular assay (contact assay): kallikrein activity in ellagic acid-activated human plasma, Z-FR-2-AMC substrate; type: biochemical; conditions: human plasma activated with ellagic acid, 37° C.
Description: The ability of the compounds disclosed herein to inhibit cellular kallikrein activity was quantified and the respective EC50 value was determined.
All dilutions were prepared in an assay buffer comprising 50 mM Tris-HCl pH 7.2, 150 mM NaCl, and 0.01% Triton X-100.
The ten solutions of the test compounds, prepared by serial dilution, were further diluted 50-fold in the assay buffer.
Human plasma is thawed on ice and centrifuged for 15 min at 4° C. to remove platelets. A 1 mM stock solution of ellagic acid is diluted to 8 μM and mixed with human plasma, after removing platelets, at a ratio of 1:0.8.
A 22.5 μL volume of the final mixture of human plasma and ellagic acid was added to a 96-well microwell plate and the plate was incubated for 15 min at 37° C.
The CINH inhibitor at various concentrations, prepared by serial dilutions as described above, were added to the inhibitor control wells. […] Each CINH concentration is tested in duplicates.
The test compounds at various concentrations, also prepared by serial dilutions as described above, are added to the test wells. […] Each test compound concentration was tested in duplicates.
In addition to the inhibitor control and test wells, the 96 well assay plate includes positive control wells which contained the mixture of human plasma and ellagic acid without C1NH inhibitor or test compounds, and background wells which contained neither the mixture of human plasma and ellagic acid nor the test compounds. The total volume of liquid in positive control and background wells was brought up to 35 μL, using the assay buffer.
The assay plate containing C1NH inhibitors and test compounds mixed with human plasma and ellagic acid and appropriate controls was incubated at 37° C. for 5 min. […] The reagents were mixed well by shaking the plate gently for 30 sec.
The enzyme reaction was quantified by immediate kinetic reading of the assay plate using excitation/emission wavelengths of 330 nm/440 nm respectively. Fluorescence intensity was recorded for 60 min, using a time interval of 43 sec.
The inhibition activity of the test compounds were evaluated using the EC50 values, calculated according to the dose-response curve of the test compounds, fitted using the “log(inhibitor)−response (variable slope)” equation in GraphPadPrism software (GraphPad Software, Inc.).
The percentage inhibition was calculated using the following equation:
[formula] where, Mean (BG) is the average value of the fluorescence intensity of the background wells and Mean (PC) is the average value of the fluorescence intensity of the positive control wells.
Table 4 provides the EC50 values of various compounds disclosed herein.

human plasma kallikrein = human plasma kallikrein (Homo sapiens (Human), UniProt P03952); assay: In vitro enzyme inhibition of human plasma kallikrein (PFR-AMC cleavage); type: biochemical; conditions: Pro-Phe-Arg-AMC substrate, 37° C., read-out: hPK IC50
Sequence of human plasma kallikrein (P03952 391-638): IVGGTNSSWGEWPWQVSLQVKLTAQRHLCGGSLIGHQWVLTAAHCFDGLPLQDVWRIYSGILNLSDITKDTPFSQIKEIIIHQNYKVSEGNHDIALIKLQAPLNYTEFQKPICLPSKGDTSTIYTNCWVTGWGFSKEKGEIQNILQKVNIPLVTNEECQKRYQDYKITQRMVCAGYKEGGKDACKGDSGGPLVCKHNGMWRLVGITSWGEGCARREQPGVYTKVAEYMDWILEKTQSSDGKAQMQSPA
Sequence of human plasma kallikrein (P03952 20-390 partner): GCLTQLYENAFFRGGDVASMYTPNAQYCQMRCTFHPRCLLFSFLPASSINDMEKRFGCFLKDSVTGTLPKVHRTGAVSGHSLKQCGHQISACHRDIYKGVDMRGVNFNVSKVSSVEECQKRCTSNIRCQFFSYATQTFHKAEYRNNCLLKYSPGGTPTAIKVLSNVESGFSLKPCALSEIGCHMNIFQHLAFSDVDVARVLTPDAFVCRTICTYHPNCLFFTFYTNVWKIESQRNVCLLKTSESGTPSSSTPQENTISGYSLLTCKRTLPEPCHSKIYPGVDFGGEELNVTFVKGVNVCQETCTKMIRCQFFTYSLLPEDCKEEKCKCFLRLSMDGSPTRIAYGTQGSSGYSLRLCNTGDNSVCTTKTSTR
Method in brief: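 Human plasma kallikrein and compound, diluted in 50 mM Tris-HCl pH 7.5, 150 mM NaCl, 0.01% Triton X-100, preincubated 5 min at 37 °C before PFR-AMC was added.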

Sequence of cellular kallikrein activity (P03952 391-638): as the sequence (P03952 391-638) above
Sequence of cellular kallikrein activity (P03952 20-390 partner): as the sequence (P03952 20-390 partner) above

Row | EC50 [1] [µM] | IC50 (human plasma kallikrein) [µM] | Compound
1 | < 0.1 |  | COC(=O)c1cc(Cc2cc(C(=O)NCc3c(C)cc(N)nc3C)ccn2)cc2cc(Cl)cnc12 [Example 92, methyl 6-((4-(((6-amino-2,4-dimethylpyridin-3-yl)methyl)carbamoyl)pyridin-2-yl)methyl)-3-chloroquinoline-8-carboxylate]
2 | 0.1 to 1 |  | Cc1cc(N)nc(C)c1CNC(=O)c1cc(Cc2ccc3ncc(Cl)cc3c2)nc(C(=O)O)c1 [Example 209, 4-((6-amino-2,4-dimethylpyridin-3-yl)methylcarbamoyl)-6-((3-chloroquinolin-6-yl)methyl)picolinic acid]
3 | 0.1 to 1 |  | Cc1cc(N)nc(C)c1CNC(=O)c1ccnc(Cc2ccc3ncc(Cl)cc3c2F)c1 [Example 102, N-((6-amino-2,4-dimethylpyridin-3-yl)methyl)-2-((3-chloro-5-fluoroquinolin-6-yl)methyl)isonicotinamide]
4 | < 0.1 |  | Cc1cc(N)nc(C)c1CNC(=O)c1ccnc(Cc2cc(C(=O)O)c3ncc(Cl)cc3c2)c1 [Example 93, 6-((4-(((6-amino-2,4-dimethylpyridin-3-yl)methyl)carbamoyl)pyridin-2-yl)methyl)-3-chloroquinoline-8-carboxylic acid]
5 |  | > 10 | Cc1nc(N)cc(C#N)c1CNC(=O)c1ccnc(Cc2ccc3ncc(Cl)cc3c2)c1 [Example 167, N-((6-amino-4-cyano-2-methylpyridin-3-yl)methyl)-2-((3-chloroquinolin-6-yl)methyl)isonicotinamide]
6 |  | < 0.1 | Cc1cc(N)nc(C)c1CNC(=O)c1ccnc(Cc2ccc3ncc(CO)cc3c2)c1 [Example 257, N-((6-amino-2,4-dimethylpyridin-3-yl)methyl)-2-((3-(hydroxymethyl)quinolin-6-yl)methyl)isonicotinamide]
7 |  | < 0.1 | COC(c1ccc2ncc(Cl)cc2c1)c1cc(C(=O)NCc2c(C)cc(N)nc2C)ccn1 (centres unmarked) [Example 296, N-((6-amino-2,4-dimethylpyridin-3-yl)methyl)-2-((3-chloroquinolin-6-yl)(methoxy)methyl)isonicotinamide]
8 |  | 0.1 to 1 | Cc1nc2[nH]cc(Cl)c2c(C)c1CNC(=O)c1ccnc(Cc2ccc3ncc(Cl)cc3c2)c1 [Example 192, N-((3-chloro-4,6-dimethyl-1H-pyrrolo[2,3-b]pyridin-5-yl)methyl)-2-((3-chloroquinolin-6-yl)methyl)isonicotinamide]
9 |  | 1 to 10 | Cc1nc(N)ccc1CNC(=O)c1ccnc(Cc2ccc3ncc(C(N)=O)cc3c2)c1 [Example 251, 6-((4-(((6-amino-2-methylpyridin-3-yl)methyl)carbamoyl)pyridin-2-yl)methyl)quinoline-3-carboxamide]
10 | < 0.1 |  | Cc1cc(N)nc(C)c1CNC(=O)c1ccnc(Cc2ccc3c(cc(Cl)c[n+]3[O-])c2)c1 [Example 99, 6-((4-(((6-amino-2,4-dimethylpyridin-3-yl)methyl)carbamoyl)pyridin-2-yl)methyl)-3-chloroquinoline 1-oxide]
11 |  | > 10 | COc1cc(N)nc(C)c1CNC(=O)c1ccnc(Cc2ccc3ncc(Cl)cc3c2)c1 [Example 166, N-((6-amino-4-methoxy-2-methylpyridin-3-yl)methyl)-2-((3-chloroquinolin-6-yl)methyl)isonicotinamide]

Further lines, the compound ahead of its results:

Row | Compound | EC50 [1] [µM] | IC50 (human plasma kallikrein) [µM]
12 | Cc1cc(C(=O)NCc2c(C)cc(N)nc2C)cc(Cc2ccc3ncc(Cl)cc3c2)n1 [Example 104, N-((6-amino-2,4-dimethylpyridin-3-yl)methyl)-2-((3-chloroquinolin-6-yl)methyl)-6-methylisonicotinamide] | < 0.1 | 
13 | O=C(NCc1ccc2[nH]nc(C(F)(F)F)c2c1)c1ccnc(Cc2ccc3ncc(Cl)cc3c2)c1 [Example 267, 2-((3-chloroquinolin-6-yl)methyl)-N-((3-(trifluoromethyl)-1H-indazol-5-yl)methyl)isonicotinamide] |  | 1 to 10
14 | O=C(NCc1cnc2ccc(Cl)cn12)c1ccnc(Cc2ccc3ncc(Cl)cc3c2)c1 [Example 157, N-((6-chloroimidazo[1,2-a]pyridin-3-yl)methyl)-2-((3-chloroquinolin-6-yl)methyl)isonicotinamide] |  | > 10
15 | Cc1ccn2c(C)nc(CNC(=O)c3ccnc(Cc4ccc5ncc(Cl)cc5c4)c3)c2c1 [Example 158, 2-((3-chloroquinolin-6-yl)methyl)-N-((3,7-dimethylimidazo[1,5-a]pyridin-1-yl)methyl)isonicotinamide] |  | 0.1 to 1
16 | Cc1cnc2c(C(C)(C)O)cc(Cc3cc(C(=O)NCc4cc5c(Cl)c[nH]c5cc4F)ccn3)cc2c1 [Example 314, N-((3-chloro-6-fluoro-1H-indol-5-yl)methyl)-2-((8-(2-hydroxypropan-2-yl)-3-methylquinolin-6-yl)methyl)isonicotinamide] |  | < 0.1
17 | Cc1cnc2c(C(C)(C)O)cc(Cc3cc(C(=O)NCc4cnc5[nH]cc(Cl)c5c4)ccn3)cc2c1 [Example 316, N-((3-chloro-1H-pyrrolo[2,3-b]pyridin-5-yl)methyl)-2-((8-(2-hydroxypropan-2-yl)-3-methylquinolin-6-yl)methyl)isonicotinamide] |  | < 0.1
18 | Cc1cc(C(C)(C)O)nc(C)c1CNC(=O)c1ccnc(Cc2ccc3ncc(C(F)(F)F)cc3c2)c1 [Example 174, N-((6-(2-hydroxypropan-2-yl)-2,4-dimethylpyridin-3-yl)methyl)-2-((3-(trifluoromethyl)quinolin-6-yl)methyl)isonicotinamide] |  | > 10
19 | Cc1n[nH]c2ccc(CNC(=O)c3ccnc(Cc4ccc5ncc(Cl)cc5c4)c3)cc12 [Example 261, 2-((3-chloroquinolin-6-yl)methyl)-N-((3-methyl-1H-indazol-5-yl)methyl)isonicotinamide] |  | 1 to 10
20 | Nc1cnc2ccc(Cc3cc(C(=O)NCc4cc5c(Cl)c[nH]c5cc4F)ccn3)cc2c1 [Example 297, 2-((3-aminoquinolin-6-yl)methyl)-N-((3-chloro-6-fluoro-1H-indol-5-yl)methyl)isonicotinamide] |  | 0.1 to 1
21 | CCc1cnc2ccc(Cc3cc(C(=O)NCc4n[nH]c5ccc(Cl)cc45)ccn3)cc2c1 [Example 284, N-((5-chloro-1H-indazol-3-yl)methyl)-2-((3-ethylquinolin-6-yl)methyl)isonicotinamide] |  | < 0.1
22 | O=C(NCc1cnc2[nH]cc(Cl)c2c1)c1ccnc(Cc2ccc3ncc(N4CCCC4)cc3c2)c1 [Example 310, N-((3-chloro-1H-pyrrolo[2,3-b]pyridin-5-yl)methyl)-2-((3-(pyrrolidin-1-yl)quinolin-6-yl)methyl)isonicotinamide] |  | 0.1 to 1
23 | Cc1nc(N)ccc1CNC(=O)c1ccnc(Cc2cc(CO)c3ncc(Cl)cc3c2)c1 [Example 97, N-((6-amino-2-methylpyridin-3-yl)methyl)-2-((3-chloro-8-(hydroxymethyl)quinolin-6-yl)methyl)isonicotinamide] | < 0.1 | 
24 | Nc1nccc2cc(CNC(=O)c3ccnc(Cc4ccc5ncc(N6CCOCC6)cc5c4)c3)ccc12 [Example 293, N-((1-aminoisoquinolin-6-yl)methyl)-2-((3-morpholinoquinolin-6-yl)methyl)isonicotinamide] |  | 1 to 10
25 | Cc1ccn2c(C)nc(CNC(=O)c3ccnc(Cc4ccc5ncc(C(F)(F)F)cc5c4)c3)c2c1 [Example 159, N-((3,7-dimethylimidazo[1,5-a]pyridin-1-yl)methyl)-2-((3-(trifluoromethyl)quinolin-6-yl)methyl)isonicotinamide] |  | 0.1 to 1
26 | CC(=O)Nc1cc(C)c(CNC(=O)c2ccnc(Cc3ccc4ncc(Cl)cc4c3)c2)c(C)n1 [Example 193, N-((6-acetamido-2,4-dimethylpyridin-3-yl)methyl)-2-((3-chloroquinolin-6-yl)methyl)isonicotinamide] |  | 1 to 10
27 | Cc1nc(N)cc(C(F)(F)F)c1CNC(=O)c1ccnc(Cc2ccc3ncc(Cl)cc3c2)c1 [Example 165, N-((6-amino-2-methyl-4-(trifluoromethyl)pyridin-3-yl)methyl)-2-((3-chloroquinolin-6-yl)methyl)isonicotinamide] |  | 0.1 to 1
28 | Cc1cc2cncn2cc1CNC(=O)c1ccnc(Cc2ccc3ncc(Cl)cc3c2)c1 [Example 188, 2-((3-chloroquinolin-6-yl)methyl)-N-((7-methylimidazo[1,5-a]pyridin-6-yl)methyl)isonicotinamide] |  | > 10
29 | Nc1cnc2ccc(Cc3cc(C(=O)NCc4n[nH]c5ccc(Cl)cc45)ccn3)cc2c1 [Example 299, 2-((3-aminoquinolin-6-yl)methyl)-N-((5-chloro-1H-indazol-3-yl)methyl)isonicotinamide] |  | 1 to 10
